Legend:
orchidectomized rats = assay: Antiandrogenic effect in orchidectomized rats (Hershberger); type: in vivo, rat; settings: for Antiandrogenic effect (% inhibition): 1 mg/kg/day TP s.c. plus 10 mg/kg/day test substance for seven days, prostate weight; for antiandrogenic effect (in words): Hershberger
Description: This entails testing the suitability of the compounds for inhibiting the androgen-dependent growth of prostate, seminal vesicle and levator ani muscle in young, male, castrated rats receiving androgen replacement.
For this purpose, young rats are initially castrated. Eight days after the orchidectomy, the animals receive 1 mg/kg/day testosterone propionate (TP) s.c. alone or in combination with the test substances (10 mg/kg/day) for seven days.
On day 15 after the orchidectomy, the animals are sacrificed, and prostate, seminal vesicle and levator ani muscle are dissected out, and the relative wet weight is determined. The inhibited androgen-induced growth serves as a measure of the antiandrogenic effect of the test substance.

adrenalectomized rats = assay: Antimineralocorticoid effect in adrenalectomized rats (diuresis experiment); type: in vivo, rat; settings: for ED50, antimineralocorticoid effect in the diuresis experiment: adrenalectomized male rats, s.c., aldosterone 1 μg/kg/h, AUC of urinary Na/K ratio
Description: The antimineralocorticoid effect of the compounds was determined as described by Losert at al. (Losert, W., Casals-Stenzel, J., and Buse, M. (1985). Progestogens with antimineralocorticoid activity. Arzneimittelforschung 35, 459-471).
Male animals weighing 180-200 g were adrenalectomized 5 days before the experiment and received replacement with glucocorticoids. A diuresis experiment was carried out on day 5 after the adrenalectomy. A continuous infusion of isotonic NaCl solution plus 5% glucose was administered i.v. to the animals. Simultaneous administration of 1 μg/kg/h d-aldosterone achieved a constant mineralocorticoid effect, identifiable from sodium retention and kaliuresis. The test compounds were administered s.c. in various dosages (3, 10 and 30 mg/kg), and the abolition of the aldosterone-induced sodium retention indicates an antimineralocorticoid effect.
The animals were kept in metabolism cages and urine fractions were collected each hour. The sodium and potassium ion concentration in the urine was determined by a flame-photometry method, and the Na/K ratio was calculated therefrom. The Na/K ratios were plotted against time and the area under the curve [AUC] was determined. The ED50 (concentration at which the half-maximum effect occurs) was determined as a measure of the antimineralocorticoid potency.

ovariectomized rats [1] = assay: Progestational effect in ovariectomized rats (pregnancy maintenance test); type: in vivo, rat; settings: ovariectomized pregnant rats, 5 μg/kg/d oestrone, treatment from day 8 p.c. for 6 days
Description: This entails investigating the ability of the compounds to compensate for the lack of progesterone in ovariectomized animals which no longer have their own progesterone synthesis and to maintain pregnancy (“pregnancy maintenance”).
Female animals weighing 200-230 g were mated. The animals were ovariectomized on day 8 post coitum (p.c.) and treated with 5 μg/kg/d oestrone. The compounds to be tested were given in various concentrations (3, 10, 30 mg/kg/d). Treatment was started on day 8 p.c. and continued for 6 days.
One day after the last treatment, the animals were autopsied. The degree of pregnancy maintenance was calculated by dividing the number of live fetuses by the number of detectable implantation sites. The presence of a beating heart was decisive for assessing a fetus as alive. No identifiable implantation sites (ovariectomized controls) was defined as 0% pregnancy maintenance.
The ED50 (concentration at which the half-maximum effect occurs) was determined as a measure of the progestational potency.

[2] = molecular target: T1, human androgen receptor (hAR) (Homo sapiens, UniProt P10275); assay: Antiandrogen transactivation assay (PC3 cells, hAR, MMTV-luciferase reporter); type: cell-based; settings: for IC50: PC3 cells stably transfected with hAR and MMTV-luciferase, 16 hours incubation, read-out: IC50, antiandrogenic effect in the transactivation assay; for Efficacy: per cent of the maximum effect of reference antiandrogen hydroxyflutamide
T1 construct: expressed in transfected cells; host or cells: PC3 cells, stably transfected with hAR and an MMTV-luciferase reporter
T1 sequence (P10275 1-920): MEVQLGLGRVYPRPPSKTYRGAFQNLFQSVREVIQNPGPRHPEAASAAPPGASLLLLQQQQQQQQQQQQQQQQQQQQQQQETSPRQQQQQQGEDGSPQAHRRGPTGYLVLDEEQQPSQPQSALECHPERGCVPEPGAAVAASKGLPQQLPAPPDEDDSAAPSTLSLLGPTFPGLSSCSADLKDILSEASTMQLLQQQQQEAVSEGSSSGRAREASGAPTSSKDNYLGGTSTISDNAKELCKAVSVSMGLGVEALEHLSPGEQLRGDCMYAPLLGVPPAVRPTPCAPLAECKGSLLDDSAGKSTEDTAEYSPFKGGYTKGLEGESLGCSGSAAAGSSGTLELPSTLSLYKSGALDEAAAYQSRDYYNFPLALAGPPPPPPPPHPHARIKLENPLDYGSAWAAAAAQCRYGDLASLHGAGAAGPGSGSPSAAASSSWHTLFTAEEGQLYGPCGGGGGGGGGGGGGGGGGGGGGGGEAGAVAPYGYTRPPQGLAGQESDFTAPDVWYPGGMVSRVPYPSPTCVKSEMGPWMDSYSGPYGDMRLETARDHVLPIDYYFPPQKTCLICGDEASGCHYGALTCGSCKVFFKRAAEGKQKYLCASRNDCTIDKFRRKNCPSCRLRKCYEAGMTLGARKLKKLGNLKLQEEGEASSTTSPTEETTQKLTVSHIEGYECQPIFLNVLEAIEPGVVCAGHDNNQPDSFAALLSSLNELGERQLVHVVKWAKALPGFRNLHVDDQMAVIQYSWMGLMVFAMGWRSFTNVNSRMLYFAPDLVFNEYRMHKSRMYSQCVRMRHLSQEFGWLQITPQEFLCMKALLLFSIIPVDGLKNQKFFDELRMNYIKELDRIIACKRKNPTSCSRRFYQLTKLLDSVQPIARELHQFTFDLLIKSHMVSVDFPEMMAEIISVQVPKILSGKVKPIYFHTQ
Description: The antiandrogenic effect was carried out as described in Schneider et al. (Schneider K., Graf E., Irran E., Nicholson G., Stainsby F. M., Goodfellow M., Borden S. A., Keller S., Süssmuth R. D. and Fiedler H. P. (2008) Bendigoles A˜C, New Steroids from Gordonia australis Acta 2299, J. Antibiotics (Tokyo) 61 (6), 356-364).
The culture medium used for culturing cells used for the assay was RPMI (PAA, #E15-49) with 10% FCS, […] L-glutamine, 100 U/100 ug/ml penicillin/streptomycin. Reporter cell lines (PC3 cells stably transfected with human androgen receptor (hAR) and a reporter construct which comprises luciferase under the control of an androgen-responsive promoter (MMTV)) were grown at a density of 4×10^4 cells per well in white, opaque tissue culture plates with 96 wells in each (Perkin Elmer, #P12-106-017) and maintained in culture medium with 3% DCC-FCS (serum treated with activated carbon to remove interfering components present in the serum). The compounds to be investigated were added eight hours later, and the cells were incubated with the compounds for 16 hours. The experiments were carried out in triplicate. At the end of the incubation, the effector-containing medium was removed and replaced by lysis buffer.
After luciferase assay substrate (Promega, #E1501) had been added, the plates with the 96 wells were then inserted into a microplate luminometer (Pherastar, BMG labtech), and the luminescence was measured. The IC50 values were evaluated using software for calculating dose-activity relationships. The efficacy indicates the per cent of the maximum effect by comparison with the maximum effect of a reference antiandrogen (hydroxyflutamide).

IDI1 mRNA = assay: Antiandrogenic effect in orchidectomized rats, gene expression in prostate tissue (TaqMan PCR); settings: for antiandrogenic effect (in words): IDI1 gene expression, orchidectomized rats; for fold induction at 10 mg/kg: Rattus norvegicus, 24 h, read-out: x-fold induction factor of IDI1 mRNA after TP administration; for Antiandrogenic effect (% inhibition): inhibition of TP-induced IDI1 mRNA induction, prostate, 24 hours
Description: As a modification of the Hershberger assay described above, in addition animals were sacrificed 24 hours after the first treatment (1 mg/kg TP, 10 mg/kg test substance), and prostate tissue was shock-frozen immediately after the autopsy and then employed for mRNA isolation. A quantitative PCR method (TagMan) was used to investigate the induction (x-fold induction factor) of androgen-stimulated genes, inter alis of steroid biosynthesis (e.g. IDI1, NM 004508.2) as a measure of the androgenic effect of TP and the inhibition thereof by the compounds of the invention.

ovariectomized rats [3] = assay: Modified pregnancy maintenance experiment with pharmacokinetic/pharmacodynamic model (AUC versus pregnancy maintenance); type: in vivo; settings: rat, calculated from physiologically based PK model
Excerpt: In order to describe the difference in their progestational potency more precisely, in a modified pregnancy maintenance experiment blood samples were additionally taken at various times to determine pharmacokinetic parameters. The rats were pretreated in this case as described in the preceding experiment. A physiologically based pharmacokinetic model was developed using the programmes PK-SIM, version 4.0.1 (Bayer Technology Services, Leverkusen, Germany), GastroPlus version 5.2 (Simulations Plus, Inc., Lancaster, Calif., USA) and WinNonlin® Professional (version 5.2, Pharsight Corp., Mountain View, Calif., USA).
The relation was found between the AUC (area under the curve of the time-concentration profile) reached during the experiment and the measured pharmacological effect, i.e. the pregnancy maintenance achieved. The model thus permitted estimation of AUC50 values.
Based on the relation between systemic exposure and effect, the AUC in blood necessary to achieve 80% pregnancy maintenance in the rat model was calculated (Table 2).

C[C@]12CCC(=O)C=C1[C@@H]1C[C@@H]1C1C2[C@@H](F)C[C@@]2(C)C1[C@@H]1C[C@@H]1[C@@]21CCC(=O)O1 (single isomer, unassigned) [Compound of Ex. 2, 6β,7β;15β,16β-Dimethylene-11β-fluoro-3-oxo-17-pregn-4-ene-21,17β-carbolactone]
Antiandrogenic effect (% inhibition) (orchidectomized rats): 3.8%
ED50, antimineralocorticoid effect in the diuresis experiment (adrenalectomized rats): 12.36 mg/kg/day
ED50, progestational effect in the pregnancy maintenance test (ovariectomized rats [1]): 3.4 mg/kg/day
IC50 [2]: 0.16 µM
Efficacy [2]: 31.9 per cent

C[C@]12CCC(=O)C=C1[C@@H]1C[C@@H]1C1C2=CC[C@@]2(C)C1[C@@H]1C[C@@H]1[C@@]21CCC(=O)O1 (stereo partly drawn) [Compound of Ex. 1, 6β,7β;15β,16β-Dimethylene-3-oxo-17-pregna-4,9(11)-diene-21,17β-carbolactone]
antiandrogenic effect (in words) (IDI1 mRNA): no antiandrogenic effect
fold induction at 10 mg/kg (IDI1 mRNA): 7.89
Antiandrogenic effect (% inhibition) (IDI1 mRNA; 10 mg/kg test substance): <0%
Antiandrogenic effect (% inhibition) (orchidectomized rats): <0%
AUC (blood, calculated) in rats necessary for 80% pregnancy maintenance (ovariectomized rats [3]): 210 (μg*h/L)
ED50, antimineralocorticoid effect in the diuresis experiment (adrenalectomized rats): 5.9 mg/kg/day
ED50, progestational effect in the pregnancy maintenance test (ovariectomized rats [1]): 2.9 mg/kg/day
IC50 [2]: 0.24 µM
Efficacy [2]: 19.3 per cent

CC(=O)O[C@]1(C(C)=O)CC[C@H]2[C@@H]3C=C(Cl)C4=CC(=O)[C@@H]5C[C@@H]5[C@]4(C)[C@H]3CC[C@@]21C [Cyproterone acetate, cyproterone acetate]
antiandrogenic effect (in words) (IDI1 mRNA): strong antiandrogenic effect
fold induction at 10 mg/kg (IDI1 mRNA): 1.53
Antiandrogenic effect (% inhibition) (IDI1 mRNA; 10 mg/kg test substance): 91%
Antiandrogenic effect (% inhibition) (orchidectomized rats): 73.1%
antiandrogenic effect (in words) (orchidectomized rats): strong antiandrogenic effect

C[C@]12CCC(=O)C=C1[C@@H]1C[C@@H]1C1C2CC[C@@]2(C)C1[C@@H]1C[C@@H]1[C@@]21CCC(=O)O1 (stereo partly drawn) [Drospirenone, 6β,7β-15β,16β-dimethylene-3-oxo-17-pregn-4-ene-21,17β-carbolactone]
antiandrogenic effect (in words) (IDI1 mRNA): smaller but distinct antiandrogenic effect
Antiandrogenic effect (% inhibition) (IDI1 mRNA; 10 mg/kg test substance): 27%
Antiandrogenic effect (% inhibition) (orchidectomized rats): 22.5%
antiandrogenic effect (in words) (orchidectomized rats): smaller but distinct antiandrogenic effect
AUC (blood, calculated) in rats necessary for 80% pregnancy maintenance (ovariectomized rats [3]): 1346 (μg*h/L)
ED50 (adrenalectomized rats; Rattus norvegicus, sc): 6.7 mg/kg
ED50, progestational effect in the pregnancy maintenance test (ovariectomized rats [1]): 10 mg/kg/day

CCC(=O)O[C@H]1CC[C@H]2[C@@H]3CCC4=CC(=O)CC[C@]4(C)[C@H]3CC[C@]12C [TP, testosterone propionate]
x-fold induction factor of IDI1 mRNA after TP administration (IDI1 mRNA; prostate tissue 24 hours after first treatment, 1 mg/kg TP, 10 mg/kg test substance): 7.07
